This data set is described as follows: activity coefficient (dimensionless); of the first substance listed, at infinite dilution; xn = mol fraction of the nth substance listed. The note with it: 101.3 kPa, Liquid, Chromatography, x1 = 0.

± gives the expanded uncertainty stated by the source.

With `Cc1ccccc1C` [1,2-dimethylbenzene] + CCn1cc[n+](C)c1.COP(=O)([O-])OC, the activity coefficient came to 10.2 ± 1.1 (313.15 K); 9.8 ± 1 (323.15 K); 9.59 ± 1 (333.15 K); 9.3 ± 0.98 (343.15 K); 9.14 ± 0.96 (353.15 K); 9 ± 0.95 (363.15 K).

On to `Cc1ccccc1C` [1,2-dimethylbenzene] + COP(=O)([O-])OC.Cn1cc[n+](C)c1, for which the activity coefficient came out at 12.7 ± 1.3 (313.15 K); 12.5 ± 1.3 (323.15 K); 12.4 ± 1.3 (333.15 K); 12.2 ± 1.3 (343.15 K); 12.1 ± 1.3 (353.15 K); 12 ± 1.3 (363.15 K).

As to `Cc1cccc(C)c1` [1,3-dimethylbenzene] + CCn1cc[n+](C)c1.COP(=O)([O-])OC, the activity coefficient reads like this: (313.15 K) 12.4 ± 1.3; (323.15 K) 11.8 ± 1.2; (333.15 K) 11.2 ± 1.2; (343.15 K) 10.8 ± 1.1; (353.15 K) 10.5 ± 1.1; (363.15 K) 9.99 ± 1.1.

Turning to `Cc1cccc(C)c1` [1,3-dimethylbenzene] + COP(=O)([O-])OC.Cn1cc[n+](C)c1, the activity coefficient came out at 14.6 ± 1.5 (313.15 K); 14.4 ± 1.5 (323.15 K); 14.2 ± 1.5 (333.15 K); 14.2 ± 1.5 (343.15 K); 14.1 ± 1.5 (353.15 K); 13.9 ± 1.5 (363.15 K).

For `Cc1ccc(C)cc1` [1,4-dimethylbenzene] + CCn1cc[n+](C)c1.COP(=O)([O-])OC, the activity coefficient (313.15 K) worked out at 12.1 ± 1.3; the activity coefficient (323.15 K) was 11.5 ± 1.2; the activity coefficient (333.15 K) is 10.9 ± 1.1; the activity coefficient (343.15 K) turned out to be 10.5 ± 1.1; the activity coefficient (353.15 K) was found to be 9.99 ± 1.1; the activity coefficient (363.15 K) worked out at 9.53 ± 1.

As to `Cc1ccc(C)cc1` [1,4-dimethylbenzene] + COP(=O)([O-])OC.Cn1cc[n+](C)c1, the activity coefficient (313.15 K) was 13.8 ± 1.4; the activity coefficient (323.15 K) was 13.6 ± 1.4; the activity coefficient (333.15 K) was determined as 13.5 ± 1.4; the activity coefficient (343.15 K) is 13.4 ± 1.4; the activity coefficient (353.15 K) came to 13.2 ± 1.4; the activity coefficient (363.15 K) stood at 13.1 ± 1.4.

For the molecule `CC(C)CC(C)(C)C` [2,2,4-trimethylpentane] + CCn1cc[n+](C)c1.COP(=O)([O-])OC, the activity coefficient by setting is: (313.15 K) 183 ± 19; (323.15 K) 170 ± 18; (333.15 K) 158 ± 17; (343.15 K) 143 ± 15; (353.15 K) 132 ± 14; (363.15 K) 119 ± 13.

Regarding `CC(C)CC(C)(C)C` [2,2,4-trimethylpentane] + COP(=O)([O-])OC.Cn1cc[n+](C)c1, the activity coefficient reads like this: (313.15 K) 318 ± 34; (323.15 K) 301 ± 32; (333.15 K) 284 ± 30; (343.15 K) 270 ± 28; (353.15 K) 244 ± 26; (363.15 K) 229 ± 24.

With `c1ccccc1` [benzene] + CCn1cc[n+](C)c1.COP(=O)([O-])OC, the activity coefficient reads like this: (313.15 K) 3.51 ± 0.37; (323.15 K) 3.33 ± 0.35; (333.15 K) 3.2 ± 0.34; (343.15 K) 3.12 ± 0.33; (353.15 K) 3.02 ± 0.32; (363.15 K) 2.87 ± 0.3.

In the case of `c1ccccc1` [benzene] + COP(=O)([O-])OC.Cn1cc[n+](C)c1, the activity coefficient runs as follows: (313.15 K) 3.64 ± 0.38; (323.15 K) 3.62 ± 0.38; (333.15 K) 3.61 ± 0.38; (343.15 K) 3.59 ± 0.38; (353.15 K) 3.57 ± 0.38; (363.15 K) 3.56 ± 0.37.

As for `C1CCCCC1` [cyclohexane] + CCn1cc[n+](C)c1.COP(=O)([O-])OC, the activity coefficient (313.15 K) came out at 53.9 ± 5.7; the activity coefficient (323.15 K) stood at 48.9 ± 5.2; the activity coefficient (333.15 K) amounted to 44 ± 4.6; the activity coefficient (343.15 K) is 40.6 ± 4.3; the activity coefficient (353.15 K) was 37.7 ± 4; the activity coefficient (363.15 K) is 32.9 ± 3.5.

`C1CCCCC1` [cyclohexane] + COP(=O)([O-])OC.Cn1cc[n+](C)c1: the activity coefficient (313.15 K) is 58.4 ± 6.2; the activity coefficient (323.15 K) stood at 56 ± 5.9; the activity coefficient (333.15 K) worked out at 52.6 ± 5.5; the activity coefficient (343.15 K) was determined as 50.9 ± 5.4; the activity coefficient (353.15 K) stood at 48 ± 5.1; the activity coefficient (363.15 K) amounted to 45.7 ± 4.8.

Regarding `C1=CCCCC1` [cyclohexene] + CCn1cc[n+](C)c1.COP(=O)([O-])OC, the activity coefficient is 25.4 ± 2.7 (313.15 K); 22.4 ± 2.4 (323.15 K); 20 ± 2.1 (333.15 K); 18.7 ± 2 (343.15 K); 16.9 ± 1.8 (353.15 K); 15.5 ± 1.6 (363.15 K).

Regarding `C1=CCCCC1` [cyclohexene] + COP(=O)([O-])OC.Cn1cc[n+](C)c1, the activity coefficient reads like this: (313.15 K) 32.7 ± 3.5; (323.15 K) 31.6 ± 3.3; (333.15 K) 30.7 ± 3.2; (343.15 K) 30.1 ± 3.2; (353.15 K) 29.1 ± 3.1; (363.15 K) 28.3 ± 3.

`CCCCCCCCCC` [decane] + CCn1cc[n+](C)c1.COP(=O)([O-])OC: the activity coefficient was 430 ± 45 (313.15 K); 388 ± 41 (323.15 K); 354 ± 37 (333.15 K); 316 ± 33 (343.15 K); 294 ± 31 (353.15 K); 245 ± 26 (363.15 K).

For the molecule `CCCCCCCCCC` [decane] + COP(=O)([O-])OC.Cn1cc[n+](C)c1, the activity coefficient is, setting by setting: (313.15 K) 503 ± 53; (323.15 K) 480 ± 51; (333.15 K) 466 ± 49; (343.15 K) 448 ± 47; (353.15 K) 431 ± 46; (363.15 K) 414 ± 44.

Take `CCCCCCC` [heptane] + CCn1cc[n+](C)c1.COP(=O)([O-])OC: the activity coefficient reads like this: (313.15 K) 162 ± 17; (323.15 K) 151 ± 16; (333.15 K) 138 ± 15; (343.15 K) 124 ± 13; (353.15 K) 111 ± 12; (363.15 K) 97.7 ± 10.

As for `CCCCCCC` [heptane] + COP(=O)([O-])OC.Cn1cc[n+](C)c1, the activity coefficient reads like this: (313.15 K) 297 ± 31; (323.15 K) 279 ± 29; (333.15 K) 258 ± 27; (343.15 K) 243 ± 26; (353.15 K) 231 ± 24; (363.15 K) 216 ± 23.

As to `CCCCCC` [hexane] + CCn1cc[n+](C)c1.COP(=O)([O-])OC, the activity coefficient reads like this: (313.15 K) 139 ± 15; (323.15 K) 122 ± 13; (333.15 K) 107 ± 11; (343.15 K) 87.6 ± 9.2; (353.15 K) 72.2 ± 7.6; (363.15 K) 61.5 ± 6.5.

As to `CCCCCC` [hexane] + COP(=O)([O-])OC.Cn1cc[n+](C)c1, the activity coefficient by setting is: (313.15 K) 260 ± 27; (323.15 K) 246 ± 26; (333.15 K) 230 ± 24; (343.15 K) 218 ± 23; (353.15 K) 203 ± 21; (363.15 K) 187 ± 20.

On to `CC1CCCCC1` [methylcyclohexane] + CCn1cc[n+](C)c1.COP(=O)([O-])OC, for which the activity coefficient by setting is: (313.15 K) 77.7 ± 8.2; (323.15 K) 68.3 ± 7.2; (333.15 K) 61.5 ± 6.5; (343.15 K) 55.9 ± 5.9; (353.15 K) 50.5 ± 5.3; (363.15 K) 45.5 ± 4.8.

As to `CC1CCCCC1` [methylcyclohexane] + COP(=O)([O-])OC.Cn1cc[n+](C)c1, the activity coefficient runs as follows: (313.15 K) 83.4 ± 8.8; (323.15 K) 80.8 ± 8.5; (333.15 K) 78.3 ± 8.2; (343.15 K) 75.4 ± 7.9; (353.15 K) 73 ± 7.7; (363.15 K) 69.9 ± 7.4.

With `CCCCCCCCC` [nonane] + CCn1cc[n+](C)c1.COP(=O)([O-])OC, the activity coefficient runs as follows: (313.15 K) 272 ± 29; (323.15 K) 243 ± 26; (333.15 K) 225 ± 24; (343.15 K) 207 ± 22; (353.15 K) 197 ± 21; (363.15 K) 182 ± 19.

`CCCCCCCCC` [nonane] + COP(=O)([O-])OC.Cn1cc[n+](C)c1: the activity coefficient by setting is: (313.15 K) 400 ± 42; (323.15 K) 384 ± 40; (333.15 K) 368 ± 39; (343.15 K) 351 ± 37; (353.15 K) 345 ± 36; (363.15 K) 327 ± 34.

For the molecule `CCCCCCCC` [octane] + CCn1cc[n+](C)c1.COP(=O)([O-])OC, the activity coefficient is, setting by setting: (313.15 K) 202 ± 21; (323.15 K) 187 ± 20; (333.15 K) 173 ± 18; (343.15 K) 158 ± 17; (353.15 K) 144 ± 15; (363.15 K) 132 ± 14.

Regarding `CCCCCCCC` [octane] + COP(=O)([O-])OC.Cn1cc[n+](C)c1, the activity coefficient by setting is: (313.15 K) 340 ± 36; (323.15 K) 325 ± 34; (333.15 K) 302 ± 32; (343.15 K) 285 ± 30; (353.15 K) 270 ± 28; (363.15 K) 248 ± 26.

On to `CCCCC` [pentane] + CCn1cc[n+](C)c1.COP(=O)([O-])OC, for which the activity coefficient (313.15 K) is 125 ± 13; the activity coefficient (323.15 K) is 106 ± 11; the activity coefficient (333.15 K) is 88.5 ± 9.3; the activity coefficient (343.15 K) worked out at 69.8 ± 7.4; the activity coefficient (353.15 K) was 60.5 ± 6.4; the activity coefficient (363.15 K) worked out at 52.9 ± 5.6.

Take `CCCCC` [pentane] + COP(=O)([O-])OC.Cn1cc[n+](C)c1: the activity coefficient was 245 ± 26 (313.15 K); 230 ± 24 (323.15 K); 217 ± 23 (333.15 K); 201 ± 21 (343.15 K); 184 ± 19 (353.15 K); 170 ± 18 (363.15 K).

The values above are taken from the NIST ThermoML archive (doi:10.1016/j.jct.2015.07.046).
